Patent US20240226115A1, “AXL INHIBITOR COMPOUNDS” (ARCUS BIOSCIENCES, INC., priority 2021, published 2024)

target: T1, Axl (Homo sapiens, UniProt P30530); experiment: Axl NanoBRET intracellular kinase assay (Cell Binding); design: host or cells: HEK-293; conditions: HEK-293 cells transfected with Axl-NanoLuc fusion vector; displacement of K-5 NanoBRET tracer
T1 sequence (P30530 26-894): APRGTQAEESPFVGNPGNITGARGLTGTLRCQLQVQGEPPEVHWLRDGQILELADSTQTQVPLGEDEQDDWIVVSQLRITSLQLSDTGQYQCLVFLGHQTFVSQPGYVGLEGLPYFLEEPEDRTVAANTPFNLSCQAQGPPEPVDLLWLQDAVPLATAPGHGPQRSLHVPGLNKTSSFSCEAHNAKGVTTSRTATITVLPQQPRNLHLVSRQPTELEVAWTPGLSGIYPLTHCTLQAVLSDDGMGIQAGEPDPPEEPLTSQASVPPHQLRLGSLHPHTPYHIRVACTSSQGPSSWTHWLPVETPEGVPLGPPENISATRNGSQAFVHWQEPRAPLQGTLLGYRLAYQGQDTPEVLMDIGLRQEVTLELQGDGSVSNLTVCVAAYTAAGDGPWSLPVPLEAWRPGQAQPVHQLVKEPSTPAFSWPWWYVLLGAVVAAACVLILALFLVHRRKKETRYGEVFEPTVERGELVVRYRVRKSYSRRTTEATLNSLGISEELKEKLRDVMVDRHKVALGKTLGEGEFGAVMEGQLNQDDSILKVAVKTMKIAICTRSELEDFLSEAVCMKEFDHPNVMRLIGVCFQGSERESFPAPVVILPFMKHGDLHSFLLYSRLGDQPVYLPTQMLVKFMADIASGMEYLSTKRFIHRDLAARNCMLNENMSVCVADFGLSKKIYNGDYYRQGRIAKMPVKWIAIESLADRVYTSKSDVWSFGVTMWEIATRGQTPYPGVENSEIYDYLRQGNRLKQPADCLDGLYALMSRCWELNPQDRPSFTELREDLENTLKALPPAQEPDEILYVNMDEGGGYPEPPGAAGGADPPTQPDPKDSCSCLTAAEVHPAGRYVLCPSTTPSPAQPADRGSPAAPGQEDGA
Method: Axl NanoBRET™ intracellular kinase assay (Promega, N2540) was performed according to manufacturer's recommendation. In brief, HEK-293 cells are transiently transfected with Axl-NanoLuc fusion vector (Promega, NV1071), utilizing Fugene HD transfection reagent (Promega, E2311) a day before experiment following manufacturer's recommendation.
The day of the assay, the cells were collected and resuspended in Opti-MEM media (ThermoFisher, 31985070) at 2e5 cells/mL concentration. Testing compounds were serial diluted and dispensed into a white 384 well polystyrene plate at 200 nL in 100% DMSO. 40 μL of resuspended cells is then added per well for a final condition of 8K cells/well with 0.5% DMSO. After one-hour compound pre-incubation at 37° C. and 5% CO2, cells were further incubated with 0.35 μM K-5 NanoBRET tracer for two-hours at 37° C. and 5% CO2. […] of 3× substrate plus Inhibitor solution was prepared according to kits manual and added to the cells followed by a 30 second pulse centrifugation spin. The plate was then immediately read utilizing an Envision (Perkin Elmer) plate reader. The BRET signal is measured by taking the ratio of the emissions reading at 610 nm and 450 nm. Compound binding is based on the decrease BRET signal caused by the displacement of the K-5 tracer. […] IC50 value of compounds was determined by 4-parameter non-linear regression fitting of percent activity in GraphPad Prism software.

IC50 [nM]	Structure (SMILES)
< 100	CC1(O)CCOc2cc(-c3n[nH]c4ncc(-c5ccc6c(c5)CC[C@@H](N5CCCC5)CC6)cc34)ccc21 (stereo partly drawn) [Example 31, 4-Methyl-7-{5-[(7S)-7-(pyrrolidin-1-yl)-6,7,8,9-tetrahydro-5H-benzo[7]annulen-2-yl]-1H-pyrazolo[3,4-b]pyridin-3-yl}-3,4-dihydro-2H-1-benzopyran-4-ol]
< 100	CC1(C)NS(=O)(=O)c2cc(-c3n[nH]c4ncc(-c5ccc6c(c5)CCC(N5CCCC5)CC6)cc34)ccc21 (stereo not shown) [Example 32, 3,3-Dimethyl-6-{5-[7-(pyrrolidin-1-yl)-6,7,8,9-tetrahydro-5H-benzo[7]annulen-2-yl]-1H-pyrazolo[3,4-b]pyridin-3-yl}-2,3-dihydro-1λ^6,2-benzothiazole-1,1-dione]
< 100	C[C@@H]1CCCN1C1CCc2ccc(-c3cnc4[nH]nc(-c5ccc6c(c5)S(=O)(=O)NC6(C)C)c4c3)cc2CC1 (stereo partly drawn) [Example 33, 3,3-Dimethyl-6-(5-{7-[(2R)-2-methylpyrrolidin-1-yl]-6,7,8,9-tetrahydro-5H-benzo[7]annulen-2-yl}-1H-pyrazolo[3,4-b]pyridin-3-yl)-2,3-dihydro-1λ^6,2-benzothiazole-1,1-dione]
< 100	CC1(C)NS(=O)(=O)c2cc(-c3n[nH]c4ncc(-c5ccc6c(c5)CCC(N5CCC[C@@H]5CO)CC6)cc34)ccc21 (stereo partly drawn) [Example 34, 6-(5-{7-[(2R)-2-(Hydroxymethyl)pyrrolidin-1-yl]-6,7,8,9-tetrahydro-5H-benzo[7]annulen-2-yl}-1H-pyrazolo[3,4-b]pyridin-3-yl)-3,3-dimethyl-2,3-dihydro-1λ^6,2-benzothiazole-1,1-dione]

The next lines start with the molecule.

Structure (SMILES)	IC50 [nM]
CC[C@@H]1CCCN1C1CCc2ccc(-c3cnc4[nH]nc(-c5ccc6c(c5)OCCNC6=O)c4c3)cc2CC1 (stereo partly drawn) [Example 25, 8-(5-{7-[(2R)-2-Ethylpyrrolidin-1-yl]-6,7,8,9-tetrahydro-5H-benzo[7]annulen-2-yl}-1H-pyrazolo[3,4-b]pyridin-3-yl)-2,3,4,5-tetrahydro-1,4-benzoxazepin-5-one]	< 100
CC1(O)CCOc2cc(-c3n[nH]c4ncc(-c5ccc6c(c5)CCN(C5CCCC5)CC6)cc34)ccc21 (stereo not shown) [Example 26, 7-[5-(3-Cyclopentyl-2,3,4,5-tetrahydro-1H-3-benzazepin-7-yl)-1H-pyrazolo[3,4-b]pyridin-3-yl]-4-methyl-3,4-dihydro-2H-1-benzopyran-4-ol]	100 to 1000
CC1(O)CCCCc2cc(-c3n[nH]c4ncc(-c5ccc6c(c5)CCN(C5CCCC5)CC6)cc34)ccc21 (stereo not shown) [Example 27, 2-[5-(3-Cyclopentyl-2,3,4,5-tetrahydro-1H-3-benzazepin-7-yl)-1H-pyrazolo[3,4-b]pyridin-3-yl]-5-methyl-6,7,8,9-tetrahydro-5H-benzo[7]annulen-5-ol]	100 to 1000
CC1(O)CCCOc2cc(-c3n[nH]c4ncc(-c5ccc6c(c5)CCN(C5CCCC5)CC6)cc34)ccc21 (stereo not shown) [Example 28, (8-[5-(3-Cyclopentyl-2,3,4,5-tetrahydro-1H-3-benzazepin-7-yl)-1H-pyrazolo[3,4-b]pyridin-3-yl]-5-methyl-2,3,4,5-tetrahydro-1-benzoxepin-5-ol)]	100 to 1000
C[C@@H]1CCCN1C1CCc2ccc(-c3cnc4[nH]nc(-c5ccc6c(c5)OCCC6(C)O)c4c3)cc2CC1 (stereo partly drawn) [Example 29, 4-Methyl-7-(5-{7-[(2R)-2-Methylpyrrolidin-1-yl]-6,7,8,9-tetrahydro-5H-benzo[7]annulen-2-yl}-1H-pyrazolo[3,4-b]pyridin-3-yl)-3,4-dihydro-2H-1-benzopyran-4-ol]	< 100
CC1(O)CCc2cc(-c3n[nH]c4ncc(-c5ccc6c(c5)CC[C@@H](N5CCCC5)CC6)cc34)ccc21 (stereo partly drawn) [Example 30, 1-Methyl-5-{5-[(7S)-7-(pyrrolidin-1-yl)-6,7,8,9-tetrahydro-5H-benzo[7]annulen-2-yl]-1H-pyrazolo[3,4-b]pyridin-3-yl}-2,3-dihydro-1H-inden-1-ol]	< 100
